Legend:
Format in all cases: physicochemical
[1] = D50 particle size of milled drug, turbidimetry; conditions: size detection by turbidimetry; after magnetic stir-bar milling, parameters of Table 2
Excerpt: (§1) Valdecoxib, linezolid, phenytoin, griseofulvin and carbamazepine were milled according to the general procedure described for celecoxib in Example 1.

[2] = D50 particle size of milled drug, X-ray diffraction; conditions: size detection by X-ray diffraction; after magnetic stir-bar milling, parameters of Table 2
Excerpt: as §1

[3] = D50 particle size of milled drug, optical microscopy; conditions: size detection by optical microscopy; after magnetic stir-bar milling, parameters of Table 2
Excerpt: as §1

Row | SMILES | D50 (nm) [1] | D50 (nm) [2] | D50 (nm) [3]
1 | O=C1NC(=O)C(c2ccccc2)(c2ccccc2)N1 [Phenytoin] | 200^1 nm | 130^3 nm | –
2 | NC(=O)N1c2ccccc2C=Cc2ccccc21 [Carbamazepine] | 2500^1 nm | 2600^3 nm | –
3 | CC(=O)NC[C@H]1CN(c2ccc(N3CCOCC3)c(F)c2)C(=O)O1 [Linezolid] | 1900^1 nm | – | 1000^2 nm
4 | Cc1onc(-c2ccccc2)c1-c1ccc(S(N)(=O)=O)cc1 [Valdecoxib] | 460^1 nm | – | –
5 | COC1=CC(=O)C[C@@H](C)[C@]12Oc1c(Cl)c(OC)cc(OC)c1C2=O [Griseofulvin] | 250^1 nm | 160^3 nm | –

From patent US6814319B2, “Laboratory scale milling process” (Pharmacia & Upjohn Company, priority 2000, dated 2004)
